“And” between values parts separate entries of the source, which are not always exact repeats. Equal values may be shown once. Read-outs that look alike come from different tables or passages of the source.
How the values were obtained:
ECHOR = experiment: Example II: in-water applied weed control, transplanted paddy rice, greenhouse; assay type: in vivo, Echinochloa oryzoides (Ard.) Fritsch (early watergrass)
Summary of the method: (§1)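 Transplanted rice and weeds at the first to fourth true leaf stage in flooded mud pots (pH ~7.6 soil), greenhouse ~29/26 °C, 14 h photoperiod. Compound A (acid equivalent) and VLCFA/lipid-synthesis herbicides (active ingredient) injected into the paddy water in 1.25% crop oil concentrate. Injury scored visually at ~3 weeks versus untreated, 0–100%.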

CYPRO = experiment: as above; assay type: in vivo, Cyperus rotundus L. (purple nutsedge)
Summary of the method: as §1

`CCS(=O)(=O)Oc1ccc2c(c1)C(C)(C)CO2` [Benfuresate, 2,3-dihydro-3,3-dimethyl-5-benzofuranyl ethanesulfonate] showed a pest or weed control at 150 g/ha (ECHOR; Echinochloa oryzoides, 528 h, 150 gai/ha (Full Slot), 22 DAA, read-out: Visual Weed Control ECHOR Obs) of 0%.

In the case of `CCN(CC)C(=O)n1cnc(S(=O)(=O)c2c(C)cc(C)cc2C)n1` [Cafenstrole, N,N-diethyl-3-[(2,4,6-trimethylphenyl)sulfonyl]-1H-1,2,4-triazole-1-carboxamide], the “Visual Weed Control CYPRO Obs” value (CYPRO; 52.5 gai/ha (Himeadow WP), 21 DAA) is reported as 0%, the “Visual Weed Control CYPRO Obs” value (CYPRO; 52.5 gai/ha (Lapost Flowable), 21 DAA) is reported as 0% and the “Visual Weed Control CYPRO Obs” value (CYPRO; 105 gai/ha (Himeadow WP), 21 DAA) is reported as 0%. The “Visual Weed Control CYPRO Obs” value (CYPRO; 105 gai/ha (Lapost Flowable), 21 DAA) was 0%, the pest or weed control at 52.5 g/ha (ECHOR; Echinochloa oryzoides, 504 h, 52.5 gai/ha (Himeadow WP), 21 DAA, read-out: Visual Weed Control ECHOR Obs) was 10% and the pest or weed control at 52.5 g/ha (ECHOR; Echinochloa oryzoides, 504 h, 52.5 gai/ha (Lapost Flowable), 21 DAA, read-out: Visual Weed Control ECHOR Obs) was 70%. For the same molecule, the pest or weed control at 105 g/ha (ECHOR; Echinochloa oryzoides, 504 h, 105 gai/ha (Himeadow WP), 21 DAA, read-out: Visual Weed Control ECHOR Obs) was 30%.

With `COc1c(Cl)ccc(-c2nc(C(=O)O)c(Cl)c(N)c2F)c1F` [Compound A Acid, 4-amino-3-chloro-6-(4-chloro-2-fluoro-3-methoxyphenyl)-5-fluoropyridine-2-carboxylic acid] the “Visual Weed Control (%) - 20 DAA CYPRO Obs” value (CYPRO; 8.75 gae/ha) was 0%, the “Visual Weed Control (%) - 21 DAA CYPRO Obs” value (CYPRO; 8.75 gae/ha) was 0% and the “Visual Weed Control CYPRO Obs” value (CYPRO; 8.75 gae/ha, 21 DAA) was 0%. For the same molecule, the “Visual Weed Control CYPRO Obs” value (CYPRO; 17.5 gae/ha, 21 DAA) was 20%, the “Visual Weed Control (%) - 20 DAA CYPRO Obs” value (CYPRO; 35 gae/ha) was 80% and 90% and the “Visual Weed Control (%) - 20 DAA ECHOR Obs” value (ECHOR; 8.75 gae/ha) was 10%. The “Visual Weed Control (%) - 20 DAA ECHOR Obs” value (ECHOR; 17.5 gae/ha) was 25%, the “Visual Weed Control (%) - 21 DAA ECHOR Obs” value (ECHOR; 17.5 gae/ha) was 25% and 20% and the “Visual Weed Control (%) - 20 DAA ECHOR Obs” value (ECHOR; 35 gae/ha) was 25%. For the same molecule, the “Visual Weed Control (%) - 21 DAA ECHOR Obs” value (ECHOR; 35 gae/ha) was 30% and 35% and the pest or weed control at 35 g/ha (ECHOR; Echinochloa oryzoides, 504 h, 35 gae/ha, 21 DAA, read-out: Visual Weed Control ECHOR Obs) was 30%.

`COc1c(Cl)ccc(-c2nc(C(=O)OCc3ccccc3)c(Cl)c(N)c2F)c1F` [Compound A Benzyl Ester, benzyl ester of 4-amino-3-chloro-5-fluoro-6-(4-chloro-2-fluoro-3-methoxy-phenyl)pyridine-2-carboxylic acid] was tested, and the “Visual Weed Control (%) - 21 DAA CYPRO Obs” value (CYPRO; 4.38 gae/ha) was 0%, the “Visual Weed Control CYPRO Obs” value (CYPRO; 4.38 gae/ha, 20 DAA) was 0% and the “Visual Weed Control CYPRO Obs” value (CYPRO; 4.38 gae/ha, 21 DAA) was 0%. The “Visual Weed Control CYPRO Obs” value (CYPRO; 8 gae/ha, 19 DAA) was 50%, the “Visual Weed Control (%) - 20 DAA CYPRO Obs” value (CYPRO; 8.75 gae/ha) was 20% and 30% and the “Visual Weed Control (%) - 21 DAA CYPRO Obs” value (CYPRO; 8.75 gae/ha) was 30%. For the same molecule, the “Visual Weed Control CYPRO Obs” value (CYPRO; 8.75 gae/ha, 20 DAA) was 20%, the “Visual Weed Control CYPRO Obs” value (CYPRO; 8.75 gae/ha, 21 DAA) was 30% and the “Visual Weed Control (%) - 20 DAA CYPRO Obs” value (CYPRO; 17.5 gae/ha) was 95%. For the same molecule, the “Visual Weed Control CYPRO Obs” value (CYPRO; 17.5 gae/ha, 20 DAA) was 95%, the “Visual Weed Control (%) - 20 DAA ECHOR Obs” value (ECHOR; 4.38 gae/ha) was 10% and the “Visual Weed Control (%) - 20 DAA ECHOR Obs” value (ECHOR; 8.75 gae/ha) was 20%. For the same molecule, the “Visual Weed Control (%) - 21 DAA ECHOR Obs” value (ECHOR; 8.75 gae/ha) was 15% and 25%, the “Visual Weed Control (%) - 20 DAA ECHOR Obs” value (ECHOR; 17.5 gae/ha) was 50% and the pest or weed control at 4.38 g/ha (ECHOR; Echinochloa oryzoides, 480 h, 4.38 gae/ha, 20 DAA, read-out: Visual Weed Control ECHOR Obs) was 10%. For the same molecule, the pest or weed control at 8.75 g/ha (ECHOR; Echinochloa oryzoides, 480 h, 8.75 gae/ha, 20 DAA, read-out: Visual Weed Control ECHOR Obs) was 20%, the pest or weed control at 17.5 g/ha (ECHOR; Echinochloa oryzoides, 480 h, 17.5 gae/ha, 20 DAA, read-out: Visual Weed Control ECHOR Obs) was 50% and the pest or weed control at 8.75 g/ha (ECHOR; Echinochloa oryzoides, 504 h, 8.75 gae/ha, 21 DAA, read-out: Visual Weed Control ECHOR Obs) was 15%. For the same molecule, the pest or weed control at 8.75 g/ha (ECHOR; Echinochloa oryzoides, 528 h, 8.75 gae/ha, 22 DAA, read-out: Visual Weed Control ECHOR Obs) was 35% and the pest or weed control at 17.5 g/ha (ECHOR; Echinochloa oryzoides, 528 h, 17.5 gae/ha, 22 DAA, read-out: Visual Weed Control ECHOR Obs) was 30%.

In the case of `CCCOCCN(C(=O)CCl)c1c(CC)cccc1CC` [Pretilachlor, 2-chloro-N-(2,6-diethylphenyl)-N-(2-propoxyethyl)acetamide], the “Visual Weed Control (%) - 20 DAA CYPRO Obs” value (CYPRO; 75 gai/ha) is reported as 0%, the “Visual Weed Control (%) - 20 DAA CYPRO Obs” value (CYPRO; 150 gai/ha) is reported as 0% and the “Visual Weed Control (%) - 20 DAA ECHOR Obs” value (ECHOR; 75 gai/ha) is reported as 0%. The “Visual Weed Control (%) - 20 DAA ECHOR Obs” value (ECHOR; 150 gai/ha) was 30%.

— US20130310256A1, “HERBICIDAL COMPOSITIONS COMPRISING 4-AMINO-3-CHLORO-5-FLUORO-6-(4-CHLORO-2-FLUORO-3-METHOXYPHENYL) PYRIDINE-2-CARBOXYLIC ACID OR A DERIVATIVE THEREOF AND VLCFA AND LIPID SYNTHESIS INHIBITING HERBICIDES” (DOW AGROSCIENCES LLC, priority 2008, published 2013)
